Measured values as given in article PMC12087607 (Drug Design, Development and Therapy, 2025).

Assays:
[1] = test system: rat livers; format: in vivo; settings: toxicity groups
[2] = test system: α-SMA; assay: Immunohistochemical staining of α-SMA in CCl4-induced liver fibrosis; format: in vivo, rat; settings: CCl4 6 weeks, then 6-week treatment 20 mg/kg/day; vs model group
[3] = test system: TNF-α; assay: Liver TNF-α content; format: in vivo, rat; settings: liver homogenates; CCl4 6 weeks, then 6-week treatment 20 mg/kg/day
[4] = test system: TGF-β1; assay: Hepatic TGF-β1 mRNA expression; format: in vivo, rat; settings: CCl4 6 weeks, then 6-week treatment 20 mg/kg/day; vs model group
[5] = test system: male Wistar rats; assay: In vivo toxicity study: hepatic and renal serum biomarkers; settings: in vivo toxicity study groups, 6 weeks, mean ± SEM, n = 5
[6] = test system: MDA; assay: Lipid peroxides; format: in vivo, rat; settings: liver homogenates; CCl4 6 weeks, then 6-week treatment 20 mg/kg/day
[7] = test system: rats with CCl4-induced liver fibrosis; assay: Serum liver biomarkers in CCl4-induced liver fibrosis; format: in vivo, rat; settings: CCl4 6 weeks, then 6-week treatment 20 mg/kg/day
[8] = test system: GSH; assay: Reduced glutathione; format: in vivo, rat; settings: liver homogenates; CCl4 6 weeks, then 6-week treatment 20 mg/kg/day
[9] = test system: male Wistar rats; assay: In vivo toxicity study: daily inspection and body weight; settings: daily inspection, body weight twice weekly, 6 weeks
[10] = test system: TIMP-1; assay: Hepatic TIMP-1 protein levels; format: in vivo, rat; settings: tissue homogenates; CCl4 6 weeks, then 6-week treatment 20 mg/kg/day
[11] = test system: rats with CCl4-induced liver fibrosis; assay: Liver histology; format: in vivo, rat; settings: CCl4 6 weeks, then 6-week treatment 20 mg/kg/day
[12] = test system: MMP-9; assay: Hepatic MMP-9 mRNA expression; format: in vivo, rat; settings: CCl4 6 weeks, then 6-week treatment 20 mg/kg/day

Structure (SMILES): Cc1ccc(-c2cc(C(F)(F)F)nn2-c2ccc(S(N)(=O)=O)cc2)cc1 [celecoxib]
- Gross examination of rat livers [1]: normal smooth livers with no inflammation or fatty depositions
- α-SMA % change (in words) [2]: significant decline of the α-SMA %
- Liver TNF-α content [3]: significantly superior effect in lowering TNF-α levels
- Hepatic TGF-β1 mRNA expression [4]: significant reduction in the expression of TGF- β1
- ALP [5]: 123 ± 6.59 U/L
- ALT [5]: 45.66 ± 0.88 U/L
- AST [5]: 127.5 ± 14 U/L
- Albumin [5]: 3.68 ± 0.04 g/dL
- Creatinine [5]: 0.43 ± 0.06 mg/dL
- Total Bilirubin [5]: 0.045 ± 0.006 mg/dL
- MDA content (lipid peroxides) [6]: significant lowering effect on MDA levels
- Serum ALP levels ([7]; normal range 30 to 130 U/L): lied within the normal range
- Serum AST and ALT levels ([7]; vs model group): significant reduction in liver enzyme levels
- Total serum bilirubin (TBIL) levels ([7]; vs model group): significant decrease in the total serum bilirubin levels
- GSH content [8]: significant rise in GSH levels
- Signs of stress, toxicity or weight loss [9]: did not show any signs of stress, toxicity or weight loss
- Hepatic TIMP-1 protein levels [10]: caused a decrease in TIMP-1 levels
- Liver architecture (H&E) [11]: evident fibrolytic effects
- Fibrosis score (0–4) ([11]; Masson's trichrome): significant decrease in fibrosis scores
- Hepatic MMP-9 mRNA expression [12]: reversed that upregulation
